From PubChem BioAssay AID1745844 (Carcinogenic Potency Database (CPDB), 2022)
The source made the active and inactive calls. No rule for the calls is given here.

System: rodent lifetime carcinogenesis bioassay, tumor incidence TD50
Experiment: carcinogenic potency in animals, long-term in vivo studies, CPDB compilation (AID 1745844)

## CC(=O)N[C@@H](CC(C)C)C(=O)N[C@@H](CC(C)C)C(=O)NC(C=O)CCCN=C(N)N (stereo not given in full)
mouse, strain A/JJms, females, in feed, site: liver, lesion: liver-cell tumor, type B, dosed 68 weeks, study length 68 weeks
  TD50: 933 mg/kg/day (inactive)
mouse, strain A/JJms, females, in feed, site: lung, lesion: several types, types named in the paper, dosed 68 weeks, study length 68 weeks
  TD50: 229 mg/kg/day (inactive)
mouse, strain A/JJms, males, in feed, site: liver, lesion: several types, types named in the paper, dosed 68 weeks, study length 68 weeks
  TD50: 55.8 mg/kg/day
mouse, strain A/JJms, males, in feed, site: lung, lesion: several types, types named in the paper, dosed 68 weeks, study length 68 weeks
  TD50: 422 mg/kg/day (inactive)

## COc1cc(/C=C/C(=O)OCCc2ccccc2)ccc1O
rat, strain Fischer 344, males, in feed, site: colon, lesion: one or several types, types not named, dosed 55 weeks, study length 55 weeks
  carcinogen call: negative (inactive)

## O=S1OCCO1
mouse, strain Ha/ICR, females, i.p., site: lung, lesion: papillary tumor, dosed 64 weeks, study length 64 weeks
  TD50: 1.03 mg/kg/day

## COC(C(=O)O)c1ccccc1 (stereo not given)
mouse, strain B6AKF1, females, oral dosing, site: any site (literature study), lesion: several types, types named in the paper, dosed 76 weeks, study length 76 weeks
  TD50: 227 mg/kg/day (inactive)
mouse, strain B6AKF1, females, oral dosing, site: liver, lesion: hepatoma, dosed 76 weeks, study length 76 weeks
  carcinogen call: negative (inactive)
mouse, strain B6AKF1, females, oral dosing, site: lung, lesion: adenoma, dosed 76 weeks, study length 76 weeks
  TD50: 236 mg/kg/day (inactive)
mouse, strain B6AKF1, males, oral dosing, site: any site (literature study), lesion: several types, types named in the paper, dosed 76 weeks, study length 76 weeks
  TD50: 139 mg/kg/day (inactive)
mouse, strain B6AKF1, males, oral dosing, site: liver, lesion: hepatoma, dosed 76 weeks, study length 76 weeks
  TD50: 3620 mg/kg/day (inactive)
mouse, strain B6AKF1, males, oral dosing, site: lung, lesion: adenoma, dosed 76 weeks, study length 76 weeks
  TD50: 157 mg/kg/day (inactive)
mouse, strain B6C3F1, females, oral dosing, site: any site (literature study), lesion: several types, types named in the paper, dosed 76 weeks, study length 76 weeks
  TD50: 157 mg/kg/day (inactive)
mouse, strain B6C3F1, females, oral dosing, site: liver, lesion: hepatoma, dosed 76 weeks, study length 76 weeks
  carcinogen call: negative (inactive)
mouse, strain B6C3F1, females, oral dosing, site: lung, lesion: adenoma, dosed 76 weeks, study length 76 weeks
  TD50: 244 mg/kg/day (inactive)
mouse, strain B6C3F1, males, oral dosing, site: all sites, lesion: reticulum-cell sarcoma, dosed 76 weeks, study length 76 weeks
  TD50: 82.1 mg/kg/day (inactive)
mouse, strain B6C3F1, males, oral dosing, site: any site (literature study), lesion: several types, types named in the paper, dosed 76 weeks, study length 76 weeks
  TD50: 54.2 mg/kg/day (inactive)
mouse, strain B6C3F1, males, oral dosing, site: liver, lesion: hepatoma, dosed 76 weeks, study length 76 weeks
  TD50: 227 mg/kg/day (inactive)
mouse, strain B6C3F1, males, oral dosing, site: lung, lesion: several types, types named in the paper, dosed 76 weeks, study length 76 weeks
  carcinogen call: negative (inactive)

## CC(=O)OC1CC(C)OC(C)O1 (stereo not given)
mouse, strain B6C3F1, females, by gavage, site: any site (literature study), lesion: several types, types named in the paper, dosed 103 weeks, study length 104 weeks
  TD50: 3380 mg/kg/day (inactive)
mouse, strain B6C3F1, females, by gavage, site: lung, lesion: alveolar/bronchiolar adenoma + alveolar/bronchiolar carcinoma, dosed 103 weeks, study length 104 weeks
  TD50: 10400 mg/kg/day
mouse, strain B6C3F1, males, by gavage, site: any site (literature study), lesion: several types, types named in the paper, dosed 103 weeks, study length 104 weeks
  TD50: 1820 mg/kg/day
mouse, strain B6C3F1, males, by gavage, site: forestomach, lesion: squamous-cell carcinoma + squamous-cell papilloma, dosed 103 weeks, study length 104 weeks
  TD50: 1440 mg/kg/day
mouse, strain B6C3F1, males, by gavage, site: liver, lesion: hepatocellular adenoma + hepatocellular carcinoma + neoplastic nodule, dosed 103 weeks, study length 104 weeks
  TD50: 1180 mg/kg/day
mouse, strain B6C3F1, males, by gavage, site: lung, lesion: alveolar/bronchiolar adenoma + alveolar/bronchiolar carcinoma, dosed 103 weeks, study length 104 weeks
  TD50: 1450 mg/kg/day
rat, strain Fischer 344, females, by gavage, site: any site (literature study), lesion: several types, types named in the paper, dosed 103 weeks, study length 104 weeks
  carcinogen call: negative (inactive)
rat, strain Fischer 344, females, by gavage, site: liver, lesion: hepatocellular adenoma + hepatocellular carcinoma + neoplastic nodule, dosed 103 weeks, study length 104 weeks
  TD50: 2430 mg/kg/day
rat, strain Fischer 344, males, by gavage, site: any site (literature study), lesion: several types, types named in the paper, dosed 103 weeks, study length 104 weeks
  carcinogen call: negative (inactive)
rat, strain Wistar, males, in drinking water, site: all sites, lesion: lymphosarcoma, dosed 87 weeks, study length 100 weeks
  TD50: 29800 mg/kg/day
rat, strain Wistar, males, in drinking water, site: all sites, lesion: myelogenous leukemia, dosed 87 weeks, study length 100 weeks
  TD50: 6770 mg/kg/day
rat, strain Wistar, males, in drinking water, site: any site (literature study), lesion: several types, types named in the paper, dosed 87 weeks, study length 100 weeks
  TD50: 419 mg/kg/day
rat, strain Wistar, males, in drinking water, site: kidney, lesion: papillary transitional-cell carcinoma, dosed 87 weeks, study length 100 weeks
  TD50: 6770 mg/kg/day
rat, strain Wistar, males, in drinking water, site: liver, lesion: hepatoma, dosed 87 weeks, study length 100 weeks
  TD50: 716 mg/kg/day
rat, strain Wistar, males, in drinking water, site: skin, lesion: epidermoid carcinoma, dosed 87 weeks, study length 100 weeks
  TD50: 6770 mg/kg/day
rat, strain Wistar, males, in drinking water, site: subcutaneous tissue, lesion: fibrosarcoma, dosed 87 weeks, study length 100 weeks
  TD50: 6770 mg/kg/day
